In patent US20240016941A1, “COMBINATION THERAPY” (priority 2020, published 2024):
“Also recorded” adds a separate entry of the source.

Experiments:
[1] = target: T1, purified LasB protein from P. aeruginosa (Pseudomonas aeruginosa, UniProt P14756); assay: Fluorometric assay to determine Ki (purified LasB, Abz-Ala-Gly-Leu-Ala-p-Nitro-Benzyl-Amide substrate); assay type: biochemical
T1 construct: purchased Merck or Charles River Laboratories
Protocol: (§1) Experiments were therefore conducted (1) to measure the potency of inhibition of compounds of the invention against purified Pseudomonas aeruginosa LasB enzyme and also experiments were conducted (2) to measure the ability of compounds of the invention to inhibit LasB-catalysed elastin degradation. The first assay uses a commercial fluorescent synthetic peptide and purified LasB enzyme. The LasB hydrolysis kinetics are measured allowing the determination of the IC50 and Ki of the inhibitors; the second is a more physiological assay using dialysed Pseudomonas aeruginosa supernatant as source of enzyme, plus its natural substrate Elastin. It is an “end point assay” that determines the percentage of LasB inhibition by each compound for one particular time point and inhibitor concentration. Technical details are described below:
This assay uses commercially available substrate (Abz-Ala-Gly-Leu-Ala-p-Nitro-Benzyl-Amide (Ex: 340 nm, Em: 415 nm) from Peptide International) and purified LasB protein from P. aeruginosa (provided by Merck or Charles River Laboratories). It is performed to determine LasB elastase activity and assess compound inhibition in 96-well plate format. All compounds of Formula (I) were assessed using the method described below.
Method: 10 to 140 ng/ml purified LasB is incubated with 250 μM Abz-Ala-Gly-Leu-Ala-p-Nitro-Benzyl-Amide in 50 mM Tris-HCl pH 7.4, 2.5 mM CaCl2), 0.01% of Triton X100 at 37° C. LasB activity (corresponding to fluorescence emission induced by substrate hydrolysis) is measured over 30 min at 37° C. with a fluorescence plate reader such as the Perkin Elmer Envision or similar. Different range of inhibitor concentrations are routinely assessed depending of inhibitor potency from 0.0016 to 200 μM (2-fold dilutions series) in order to determine IC50.
The equation used to calculate the Ki from IC50 is: Ki=IC50/(1+([S]/Km)) where [S]=250 μM and Km=214 μM.

purified LasB = purified LasB (Pseudomonas aeruginosa, UniProt P14756); assay: Inhibition of LasB-mediated hydrolysis of pro-IL-1β to IL-1β (FRET peptide); assay type: biochemical
purified LasB, sequence (P14756 198-498): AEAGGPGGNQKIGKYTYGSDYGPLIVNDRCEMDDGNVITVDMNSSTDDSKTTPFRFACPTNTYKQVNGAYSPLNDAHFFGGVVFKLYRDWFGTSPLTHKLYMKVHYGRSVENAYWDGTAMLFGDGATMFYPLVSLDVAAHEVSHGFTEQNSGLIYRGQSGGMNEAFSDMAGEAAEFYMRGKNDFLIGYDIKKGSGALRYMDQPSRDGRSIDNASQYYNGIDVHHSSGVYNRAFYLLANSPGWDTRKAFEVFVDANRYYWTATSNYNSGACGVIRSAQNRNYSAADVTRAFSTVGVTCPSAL
Protocol: Hydrolysis of this FRET peptide was continuously monitored using a Victor multimode plate reader (Perkin Elmer) with excitation 355 nm and emission at 450 nm in the presence of varying concentrations of compounds of the invention. Inhibitory constants (Ki) were determined for certain compounds of the invention (at least 2 independent replicates) using a competitive inhibitor model.

PA (PAO1) = assay: Mouse model of Pseudomonas aeruginosa lung infection; assay type: in vivo; conditions: mice infected with wild-type PAO1, i.v. 1 h and 2 h post infection, 10 and 30 mg/kg, 24 hours post infection
Protocol: Mice were dosed by intranasal inoculation of PA (PAO1), then sacrificed after 24 hours. The extent of infection in the lung was quantified by bacterial load (CFU determination, colony forming units) and the levels of proinflammatory IL-1β. Statistical analysis on both readouts were performed by ANOVA with a Dunnett post-test.
Compounds were administered intravenously in a two-dose regimen (1 hour and 2 hours post infection) at two different doses (10 and 30 mg/kg).

F508del-CFTR cells = assay: Forskolin-activated CFTR response in CF-mutant human bronchial epithelial cells (membrane potential dye); assay type: cell-based
Protocol: This example describes experiments showing that LasB impacted CFTR function in CF mutant cells can be mitigated by treatment with CFTR modulators and LasB inhibitors.
Wild Type human bronchial epithelial (HBE) cells and CF-mutant human bronchial epithelial cells (F508del-CFTR) are grown at 37° C. for 5 days and loaded onto 96-well plate cultures. The cells are loaded with blue membrane potential dye dissolved in chloride-free buffer. The plate is read in a fluorescence plate reader at 37° C. (excitation: 530 nm; emission; […]). CFTR is stimulated with forskolin.
A control signal defined as 100% transmission is obtained from WT human bronchial epithelial cells alone. A minor suppression of forskolin-activated CFTR response is expected for such WT cells in the presence of LasB.
Moderate suppression in the forskolin-activated CFTR response will be observed for CF-mutant cells. This moderate suppression will be reduced by addition of a CFTR modulator such as VX-809 (lumacaftor).
Substantial suppression in the forskolin-activated CFTR response is expected for CF-mutant cells in the presence of LasB, even following the addition of a CFTR modulator, due to the deleterious effect of LasB on expressed CFTR protein.

[2] = tested on: cells infected by tobramycin-resistance PA bacteria; conditions: combination with CFTR modulators, tobramycin-resistant PA; cited from earlier work
[3] = target: T2, LasB elastase activity of dialysed supernatant from P. aeruginosa PAO1 (Pseudomonas aeruginosa, UniProt P14756); assay: Elastin Congo-Red assay to determine % inhibition (dialysed PAO1 supernatant); assay type: biochemical; conditions: read-out: Elastin hydrolysis % inhibition @ 25 μM inhibitor concentration
T2 construct: Culture supernatants are recovered by centrifugation and filtrated through a 0.22 μM filter; endogenous in cells; host or cells: P. aeruginosa strain PAO1, culture supernatant, filtered and dialysed
T2 sequence (P14756 198-498): as above
Protocol: as §1
The Elastin assay uses as source of enzyme dialysed supernatant from P. aeruginosa PAO1 and the Elastin Congo-Red as substrate. The natural LasB substrate, elastin, is complexed with the congo-red dye (Elastin Congo-Red, ECR). The elastolysis activity from the culture supernatant will degrade elastin and release the congo-red dye into the supernatant. This red dye release can be measured with a spectrophotometer.
Method: To determine LasB elastase activity and assess compound inhibition, an overnight culture of P. aeruginosa strain PAO1 is diluted in LB medium. After reaching an OD600nm of 0.6, this culture is diluted and incubated for additional 18-24 hours in a shaking incubator. Culture supernatants are recovered by centrifugation and filtrated through a […] filter. These supernatants are dialysed (filtration molecules <20 kDa) into a 50 mM Tris-HCl pH 7.4, 2.5 mM CaCl2 solution at 4° C. under agitation for 24 hours. Supernatant dialysed is then mixed volume/volume with the ECR suspension (20 mg/mL of ECR in 100 mM Tris-HCl pH 7.4 buffer supplemented with 1 mM CaCl2)) supplemented with Triton X100 (final concentration of 0.01%) in presence of DMSO (positive control) and/or different concentrations of compound (routinely 50 to 1.56 μM). As a negative control, the dialysed supernatant is replaced by Tris-HCl solution (50 mM Tris-HCl pH 7.4, 2.5 mM CaCl2). The mixed reaction is then incubated overnight in a 37° C. shaking incubator. The reaction supernatant is recovered by centrifugation and the release of congo-red is measured by its absorbance at 495 nm (OD495nm).
Percentage inhibition is determined using the following equation:
((OD495 nm value of positive control−OD495nm value of negative control)−(OD495nm value of treated supernatant−OD495nm value of negative control))/(OD495nm value of positive control−OD495nm value of negative control)×100.

[4] = tested on: PAO1 WT secretome (contains LasB); conditions: WT-SEC treated cells; cited from earlier work

T1 sequence (P14756 198-498): as above

For COc1cc2sc(CNC(=O)C3(CC(=O)[O-])Cc4ccccc4C3)nc2cc1OCCC[N+](C)(C)C [Example 53, 2-[2-[[6-methoxy-5-[3-(trimethylammonio)propoxy]-1,3-benzothiazol-2-yl]methylcarbamoyl]indan-2-yl]acetate], which Ki [1] is on record?
Its Ki is < 50 nM.

And the Ki (purified LasB)?
Its Ki is 700 nM.

And the “extent of infection in the lung (CFU levels)” value (PA (PAO1))?
Its value is “reduced the extent of infection in the lung to the level of the LasB deleted mutant”.

What about the “production and activation of IL-1β in the lung” value (PA (PAO1)) of the same compound?
Its value is “inhibited the production and activation of IL-1β in mice infected by wild-type PA (PA01) at a similar level than the lasB deleted mutant”.

And the “Maximum forskolin-activated response of CFTR channels compared to WT human bronchial epithelial cells” value (F508del-CFTR cells; F508del-CFTR cells + 10 μM VX-809 + 0.01 μM LasB + 10 μM Example 53)?
The value was “forskolin-activated CFTR response being substantially restored; also recorded: Minor suppression of CFTR”.

Which “restoration of CFTR function” value [2] does the source give for NC[C@H]1O[C@H](O[C@H]2[C@H](O)[C@@H](O[C@H]3O[C@H](CO)[C@@H](O)[C@H](N)[C@H]3O)[C@H](N)C[C@@H]2N)[C@H](N)C[C@@H]1O [tobramycin] here?
The value was “incapable of restoring CFTR function”.

Which results are given for COc1cc2sc(CNC(=O)C3(CC(=O)[O-])Cc4cc(F)c(F)cc4C3)nc2cc1OCCOCC[N+](C)(C)C [Example 55, 2-[5,6-difluoro-2-[[6-methoxy-5-[2-[2-(trimethylammonio)ethoxy]ethoxy]-1,3-benzothiazol-2-yl]methylcarbamoyl]indan-2-yl]acetate]?
Ki [1]: < 50 nM; Ki (purified LasB): 420 nM

For COc1cc2sc(CNC(=O)C3(CC(=O)[O-])Cc4cc(F)c(F)cc4C3)nc2cc1OCCC[N+]1(C)CCCC1 [Example 19, 2-[5,6-difluoro-2-[[6-methoxy-5-[3-(1-methylpyrrolidin-1-ium-1-yl)propoxy]-1,3-benzothiazol-2-yl]methylcarbamoyl]indan-2-yl]acetate], which Ki [1] is on record?
Its Ki is < 50 nM.

What about the inhibition at 25 µM [3] of the same compound?
The inhibition at 25 µM was > 80%.

And the Ki (purified LasB)?
Its Ki is 270 nM.

For COc1cc2sc(CNC(=O)C3(CC(=O)[O-])Cc4ccccc4C3)nc2cc1OCCC[N+](C)(CCO)CCO [Example 22, 2-[2-[[5-[3-[bis(2-hydroxyethyl)-methyl-ammonio]propoxy]-6-methoxy-1,3-benzothiazol-2-yl]methylcarbamoyl]indan-2-yl]acetate], which Ki [1] is on record?
The Ki was < 50 nM.

And the inhibition at 25 µM [3]?
Its inhibition at 25 µM is 60 to 80%.

And the Ki (purified LasB)?
Its Ki is 400 nM.

Which Ki [1] does the source give for COc1cc2sc(CNC(=O)C3(CC(=O)O)Cc4cc(F)c(F)cc4C3)nc2cc1OCC1CCN(C)CC1 [Example 11, 2-[5,6-difluoro-2-[[6-methoxy-5-[(1-methyl-4-piperidyl)methoxy]-1,3-benzothiazol-2-yl]methylcarbamoyl]indan-2-yl]acetic acid] here?
Its Ki is < 50 nM.

What about the inhibition at 25 µM [3] of the same compound?
The inhibition at 25 µM was > 80%.

And the Ki (purified LasB)?
The Ki was 220 nM.

For CC(C)C[C@H](NP(=O)(O)O[C@@H]1O[C@@H](C)[C@H](O)[C@@H](O)[C@H]1O)C(=O)N[C@@H](Cc1c[nH]c2ccccc12)C(=O)O [phosphoramidon], which “downregulation of trappin-2 and IL-6 by WT secretome” value [4] is on record?
Its value is “prevented”.

What does the source list for COc1cc2sc(CNC(=O)C3(CC(=O)[O-])Cc4cc(F)c(F)cc4C3)nc2cc1OCC1CC[N+](C)(C)CC1 [Example 44, 2-[2-[[5-[(1,1-dimethylpiperidin-1-ium-4-yl)methoxy]-6-methoxy-1,3-benzothiazol-2-yl]methylcarbamoyl]-5,6-difluoro-indan-2-yl]acetate]?
Ki [1]: < 50 nM; inhibition at 25 µM [3]: > 80%; Ki (purified LasB): 300 nM

Which Ki [1] does the source give for COc1cc2sc(CNC(=O)C3(CC(=O)O)Cc4ccccc4C3)nc2cc1OCCN1CCOCC1 [Example 9, 2-[2-[[6-methoxy-5-(2-morpholinoethoxy)-1,3-benzothiazol-2-yl]methylcarbamoyl]indan-2-yl]acetic acid] here?
The Ki was < 50 nM.

What about the inhibition at 25 µM [3] of the same compound?
The inhibition at 25 µM was > 80%.

And the Ki (purified LasB)?
Its Ki is 160 nM.

Which “Maximum forskolin-activated response of CFTR channels compared to WT human bronchial epithelial cells” value (F508del-CFTR cells; F508del-CFTR cells + 10 μM VX-809) does the source give for Cc1ccc(NC(=O)C2(c3ccc4c(c3)OC(F)(F)O4)CC2)nc1-c1cccc(C(=O)O)c1 [VX-809, lumacaftor, reference compound] here?
The value was “Minor suppression of CFTR”.

And the “Maximum forskolin-activated response of CFTR channels compared to WT human bronchial epithelial cells” value (F508del-CFTR cells; F508del-CFTR cells + 10 μM VX-809 + 0.01 μM LasB)?
Its value is “substantial suppression of CFTR”.

Which Ki [1] does the source give for CC[N+](C)(CC)CCCOc1cc2nc(CNC(=O)C3(CC(=O)[O-])Cc4ccccc4C3)sc2cc1OC [Example 18, 2-[2-[[5-[3-[diethyl(methyl)ammonio]propoxy]-6-methoxy-1,3-benzothiazol-2-yl]methylcarbamoyl]indan-2-yl]acetate] here?
The Ki was < 50 nM.

And the inhibition at 25 µM [3]?
The inhibition at 25 µM was 60 to 80%.

What does the source list for COc1cc2sc(CNC(=O)C3(CC(=O)[O-])Cc4cc(F)c(F)cc4C3)nc2cc1C(=O)N1CC([N+](C)(C)C)C1 [Example 43, 2-[5,6-difluoro-2-[[6-methoxy-5-[3-(trimethylammonio)azetidine-1-carbonyl]-1,3-benzothiazol-2-yl]methylcarbamoyl]indan-2-yl]acetate]?
Ki [1]: 50 to 200 nM; inhibition at 25 µM [3]: 60 to 80%

For COc1cc2sc(CNC(=O)C3(CC(=O)[O-])Cc4ccccc4C3)nc2cc1OCCC[N+](C)(C)CCO [Example 20, 2-[2-[[5-[3-[2-hydroxyethyl(dimethyl)ammonio]propoxy]-6-methoxy-1,3-benzothiazol-2-yl]methylcarbamoyl]indan-2-yl]acetate], which Ki [1] is on record?
Its Ki is < 50 nM.

What about the inhibition at 25 µM [3] of the same compound?
Its inhibition at 25 µM is 60 to 80%.

What about the Ki (purified LasB) of the same compound?
The Ki was 340 nM.
